From patent publication US20150272951A1, “COMPOUNDS FOR THE TREATMENT OF LYSOSOMAL STORAGE DISEASES” (The Hospital for Sick Children, priority 2010, published 2015)
Read-outs that look alike come from different tables or passages of the source.

Experiments:
Hex A = Hex A (Homo sapiens, UniProt P06865+P07686); experiment: Hex A inhibition (IC50 from dose response curves of Hex A residual activity); conditions: for pKHA: pH dependence of Hex A inhibition;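 as to all read-outs here: remaining Hex A enzyme activity recorded across rising inhibitor doses, with dose response curves run at pH 6.5 and again at pH 4.5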
Description: The NINDS library was screened for compounds having Hex A inhibitory activity.
Experiments were performed using 1.6 mM 4-methylumbelliferone-b-N-Acetylglucosamine substrate.

mutant Hex A [1] = target: mutant Hex A (Homo sapiens, UniProt P06865+P07686); type: cell-based; conditions: for EC50: Hex A rescue, determined from graphs of FIGS. 5-7; for Max Increase: maximum increase in Hex A activity relative to untreated cells (=1); for Range of Increase: range of increase in Hex A activity
Description: Using the graphs of FIGS. 5-7, the EC50 values for Hex A rescue were determined as well as the maximum increase and range of increase in Hex A activity. These values are tabulated in Table 2, together with the IC50 values for Hex A inhibition that were determined in Example 3.

patient fibroblasts = experiment: Cell viability by Alamar Blue; type: cell-based, human; conditions: concentrations greater than 100 μM, five days of treatment
mutant Hex A [2] = type: cell-based, human
Description: The cells were harvested and assayed for Hex A using a fluorescent artificial substrate, MUGS. The increase in Hex A activity relative to that of untreated cells is given, i.e. no change in activity=1;
Cells were grown in the indicated concentrations of either drug for five days. The cells were harvested and assayed for Hex A activity using a fluorescent artificial substrate, MUGS. The increase in Hex A activity relative to that of untreated cells is given, i.e. no change in activity=1.
Two of the other cultures were un-genotyped infantile Tay-Sachs disease fibroblast cell lines. […] The increase in Hex A activity relative to that of untreated cells is given, i.e., no change in activity=1. The decrease in Hex A activity at high concentrations represents cell toxicity.

[3] = IC50 (μM ± Err), in brackets, brackets: IC50 extrapolated from an incomplete dose response curve
[4] = IC50 (μM), compounds with bracketed IC50, extrapolated from an incomplete dose response curve
[5] = IC50 (μM ± Err), Hex A inhibition, values determined in Example 3, pH not given
[6] = IC50 (μM), without error, pH not stated
[7] = read-out: IC50 (μM ± Err), Hex A inhibition, values determined in Example 3, pH not given

Chain of Hex A (P06865 89-529): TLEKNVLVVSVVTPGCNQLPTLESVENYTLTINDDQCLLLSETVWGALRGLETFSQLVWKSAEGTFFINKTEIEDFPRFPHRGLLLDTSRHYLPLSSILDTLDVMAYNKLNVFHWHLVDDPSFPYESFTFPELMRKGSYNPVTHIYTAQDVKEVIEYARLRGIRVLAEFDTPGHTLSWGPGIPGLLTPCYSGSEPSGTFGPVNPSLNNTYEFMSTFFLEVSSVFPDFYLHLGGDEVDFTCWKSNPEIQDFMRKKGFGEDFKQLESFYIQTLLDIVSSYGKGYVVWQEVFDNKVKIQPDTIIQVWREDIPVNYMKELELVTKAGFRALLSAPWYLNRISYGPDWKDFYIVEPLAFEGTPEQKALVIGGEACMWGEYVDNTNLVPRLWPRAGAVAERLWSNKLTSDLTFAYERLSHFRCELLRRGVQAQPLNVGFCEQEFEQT
Chain of Hex A (P07686 122-311 limits assumed): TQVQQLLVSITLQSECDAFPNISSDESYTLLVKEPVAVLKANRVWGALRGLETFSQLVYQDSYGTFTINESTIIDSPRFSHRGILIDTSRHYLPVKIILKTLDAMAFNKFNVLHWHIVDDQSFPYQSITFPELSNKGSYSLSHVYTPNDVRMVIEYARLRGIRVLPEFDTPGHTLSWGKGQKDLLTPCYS
Chain of Hex A (P07686 315-556 limits assumed): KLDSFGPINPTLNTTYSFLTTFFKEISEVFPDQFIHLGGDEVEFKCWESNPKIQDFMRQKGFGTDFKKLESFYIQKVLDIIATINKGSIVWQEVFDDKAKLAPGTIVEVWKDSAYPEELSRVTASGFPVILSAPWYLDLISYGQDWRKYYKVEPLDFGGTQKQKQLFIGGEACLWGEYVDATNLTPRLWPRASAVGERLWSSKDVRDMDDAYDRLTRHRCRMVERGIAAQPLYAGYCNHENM

SMILES	IC50 (Hex A; [3]) [µM]	IC50 (Hex A; [5]) [µM]	IC50 (Hex A; [6]) [µM]	EC50 (mutant Hex A [1]) [µM]	Max Increase (mutant Hex A [1])	Range of Increase (mutant Hex A [1])	further results
CCC1=C(c2ccc(Cl)cc2)C(N)=NCN1 [vsa8]	967						IC50 (Hex A; [4]): 967 µM
Cc1nc(N)nc(N)c1-c1ccc(Cl)cc1 [jts22]		556 ± 1	556				
CCc1nc(N)nc(N)c1-c1ccc(F)cc1 [ksh3-17]		50 ± 1	50.4	8.24	1.8	4	
CCc1nc(N)nc(N)c1-c1ccc(C)cc1 [ksh3-19b]		72 ± 2	72.3	4.44	1.5	4	
CCc1ncncc1-c1ccc(C(F)(F)F)cc1 [vsa4]	2110						
CCCc1nc(N)nc(N)c1-c1cc(C)cc(C)c1 [ksh3.33e]		24 ± 1	24.4		1.6	1	
Cc1cccc(-c2c(C)nc(N)nc2N)c1 [ksh3-14d]	10400						
CCCc1nc(N)nc(N)c1-c1ccc(OC)cc1 [zjm1-139]		28 ± 1	28.2	14.2	2.3	4	
Cc1ccc(-c2c(C)nc(N)nc2N)cc1 [ksh3-14b]	1720						IC50 (Hex A; [4]): 1720 µM
CCCCc1nc(N)nc(N)c1-c1ccc(OC)cc1 [zjm1-113]	870						IC50 (Hex A; [4]): 870 µM
CCCCc1nc(N)nc(N)c1-c1ccc(Cl)cc1 [zjm1-91]	1360						IC50 (Hex A; [4]): 1360 µM
CCCc1nc(N)nc(N)c1-c1cccc(C)c1 [ksh3.33d]		50 ± 1	50.4	14.8	1.7	3	
CCc1nc(N)nc(N)c1-c1ccsc1 [zjm7-69]		55 ± 1	55	10	1.9	4	
CCc1nc(N)nc(N)c1-c1cc(C)cc(C)c1 [ksh3-19e]				16.4	2.2	3	IC50 (Hex A; [7]): 47 ± 1 µM; IC50 (Hex A; without error, pH not stated): 47.4 µM
CCCc1nc(N)nc(N)c1-c1ccccc1 [ksh3-29]		37 ± 1	36.6	12.1	1.6	3	
Cc1ccc(-c2c(C)nc(N)nc2N)cc1 [ksh3-14c]	3830						IC50 (Hex A; [4]): 3830 µM
CCCc1nc(N)nc(N)c1-c1ccc(C)cc1 [zjm1-137]		28 ± 1	28.4	4.6	2.0	3	
CC(C)c1nc(N)nc(N)c1-c1ccc(Cl)cc1 [jts20]		406 ± 2	406				
CCCCc1nc(N)nc(N)c1-c1ccc(C)cc1 [zjm1-111]	600						IC50 (Hex A; [4]): 600 µM

SMILES	IC50 (Hex A; [3]) [µM]	IC50 (Hex A; [5]) [µM]	IC50 (Hex A; [6]) [µM]	EC50 (mutant Hex A [1]) [µM]	Max Increase (mutant Hex A [1])	Range of Increase (mutant Hex A [1])	further results
CCc1nc(N)nc(N)c1-c1cccc(C)c1 [ksh3-19d]			34.5	6.67	2.1	5	IC50 (Hex A; [7]): 34 ± 1 µM
CCCCc1nc(N)nc(N)c1-c1ccc(C(F)(F)F)cc1 [zjm1-115]		142 ± 3	142				
NCc1nc(N)nc(N)c1-c1ccc(Cl)cc1 [zjm7-27]		176 ± 1	176		1.4	1	
CCc1nc(N)nc(N)c1-c1ccc(Cl)cc1 [PYR, Pyrimethamine, reference compound]					2.0	4	reduction of viability compared to PYRdCl treated patient fibroblasts (patient fibroblasts): more than 20%; cell toxicity (mutant Hex A [2]; 33.33 μg/ml, five days): cell death was occurring; rescue of mutant Hex A activity compared with NGT (mutant Hex A [2]; fibroblasts expressing αG269S, four days (FIG. 1)): better able to rescue mutant Hex A activity; pKHA (Hex A): 6.5; Max Increase (mutant Hex A [1]; listed as PYR (vsa7)): 1.4
CCCc1nc(N)nc(N)c1-c1ccc(F)cc1 [ksh3-33a]		39 ± 1	39.1	12.5	1.4	4	
CCc1nc(N)nc(N)c1-c1ccc(C(F)(F)F)cc1 [vsa5]			14.7	2.24	1.4	3	IC50 (Hex A; [7]): 15 ± 1 µM
CC1=N[C@@H]2[C@@H](O)[C@H](O)[C@@H](CO)O[C@@H]2S1 [NGT, NAG-thiazoline, reference compound]							pKHA (Hex A): 4.5
CCCc1nc(N)nc(N)c1-c1ccc(C(F)(F)F)cc1 [zjm1-141]		16 ± 1	15.9	11.6	1.5	3	
CCc1[nH]c(=O)nc(N)c1-c1ccc(Cl)cc1 [vsa9]	400						
CCc1nc(N)nc(N)c1-c1cccs1 [zjm7-67]		31 ± 1	30.8	6.46	1.7	2	
Cc1nc(N)nc(N)c1-c1ccc(F)cc1 [ksh3-14a]	923						IC50 (Hex A; [4]): 923 µM
CCc1ncnc(N)c1-c1ccc(C(F)(F)F)cc1 [vsa6]	936						IC50 (Hex A; [4]): 936 µM
CCCc1nc(N)nc(N)c1-c1ccc(Cl)cc1 [zjm1-135]				7.14	1.4	3	IC50 (Hex A; [7]): 18 ± 1 µM; IC50 (Hex A; without error, pH not stated): 17.9 µM
CCCc1nc(N)nc(N)c1-c1ccccc1C [ksh3-33c]	825						
CCc1nc(N)nc(N)c1-c1ccccc1C [ksh3-19c]		44 ± 1	43.7	4.95	1.9	4	
Cc1cc(C)cc(-c2c(C)nc(N)nc2N)c1 [ksh3-14e]	1230						IC50 (Hex A; [4]): 1230 µM
Cc1nc(N)nc(N)c1-c1ccccc1 [ksh3-05]	1230						IC50 (Hex A; [4]): 1230 µM
CCc1nc(N)nc(N)c1-c1ccc(C(F)(F)F)cc1 [jts16]		18 ± 1	17.7	5.14	1.3	4	
